We go through seven compounds from patent publication US10023591B2, “Heterocyclic derivatives and use thereof” (C&C RESEARCH LABORATORIES, priority 2014, dated 2018).

Where only a bound is given, the exact number is not on record here.

The test system of test [1] is STAT3. In words: STAT3 reporter gene assay (luciferase), LNCaP stable cell line pSTAT3-TA-luc, IL-6 stimulation. Particulars: Homo sapiens. It counts as cell-based, human. Put shortly: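 LNCaP cells stably carrying pSTAT3-TA-luc were plated 24 h in 3% DCC-FBS medium, then given compound followed by IL-6 (10 ng/mL final) for 24 h at 37 °C. Luciferase was read from lysates, with CellTiter-Glo viability on a duplicate plate. Stimulated 0.1% DMSO wells served as uninhibited control.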
In general terms: In a reporter assay the amount or activity of a reporter protein is the signal.

For test [2], the system named is STAT1. In words: STAT1 reporter gene assay (luciferase), U2OS stable cell line pGL4-STAT1-TA-luc, IFN-γ stimulation. The test is classed as cell-based, human. Particulars: Homo sapiens, IFN-γ 50 ng/mL, 8 hours, read-out: IC50 (μM) pSTAT1. Put shortly: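 U2OS cells stably carrying a STAT1-driven luciferase reporter were treated with serially diluted compounds plus IFN-γ (50 ng/mL final) for 8 h at 37 °C in 10% FBS medium. Luciferase read after lysis; parallel plate assessed for cytotoxicity by CellTiter-Glo.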

For test [3], the system named is NCI-N87 stomach cancer cell line. In words: Cell growth inhibition assay, NCI-N87 (CellTiter-Glo). The test is classed as cell-based. The conditions noted are these: Homo sapiens; NCI-N87, 5,000 cells/well, 96 hours. Put shortly: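 Cells seeded at 3,000 (DU-145), 5,000 (NCI-N87) or 10,000 (LNCaP, MDA-MB-468) per well, LNCaP in medium with 10 ng/mL IL-6. Serially diluted compound for 96 h at 37 °C (MDA-MB-468 in air, others 5% CO2); viability by CellTiter-Glo luminescence versus 0.1% DMSO wells.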

Regarding `CC(C)(c1ccc(Cl)cc1)c1cc(Cl)cc(NC(=O)c2cc3cc(CS(C)(=N)=O)ccc3s2)c1` (stereo not drawn) [Example 36, N-(3-chloro-5-(2-(4-chlorophenyl)propan-2-yl)phenyl)-5-((S-methylsulfonimidoyl)methyl)benzo[b]thiophene-2-carboxamide], the figures for the IC50 in test [1], in test [2] and in test [3] were 0.064 µM, 42.1 µM and 0.25 µM, respectively.

Turning to `COc1cc(Cl)cc(Oc2cc(NC(=O)c3cc4cc(C(C)(C)S(C)(=O)=O)ccc4s3)cc(Cl)n2)c1` [Example 70, N-(2-chloro-6-(3-chloro-5-methoxyphenoxy)pyridin-4-yl)-5-(2-(methylsulfonyl)propan-2-yl)benzo[b]thiophene-2-carboxamide], the IC50 in test [1] is 0.024 µM; in test [2] it was over 50 µM; in test [3] it was 0.057 µM.

Consider `CC(C)(c1ccc2sc(C(=O)Nc3cc(Br)cc(Oc4ccc(Cl)cc4)c3)cc2c1)S(C)(=O)=O` [Example 39, N-(3-bromo-5-(4-chlorophenoxy)phenyl)-5-(2-(methylsulfonyl)propan-2-yl)benzo[b]thiophene-2-carboxamide], for which the IC50 is 0.0089 µM in test [1], over 50 µM in test [2] and 0.031 µM in test [3].

As for `CC(C)(c1ccc2sc(C(=O)Nc3cc(Cl)nc(Oc4cc(Cl)cc(Cl)c4)c3)cc2c1)S(C)(=O)=O` [Example 62, N-(2-chloro-6-(3,5-dichlorophenoxy)pyridin-4-yl)-5-(2-(methylsulfonyl)propan-2-yl)benzo[b]thiophene-2-carboxamide], the results for the IC50 in test [1], in test [2] and in test [3] were 0.02 µM, over 50 µM and 0.034 µM, respectively.

Regarding `Cc1csc(C(C)(C)c2cc(Cl)cc(NC(=O)c3cc4cc(C(C)(C)S(C)(=O)=O)ccc4s3)c2)c1` [Example 32, N-(3-chloro-5-(2-(4-methylthiophen-2-yl)propan-2-yl)phenyl)-5-(2-(methylsulfonyl)propan-2-yl)benzo[b]thiophene-2-carboxamide], the IC50 in test [1] is 0.01 µM; in test [2], over 50 µM; in test [3], 0.076 µM.

Take `CC(C)(C)C1CCN(c2cc(NC(=O)c3cc4cc(C(C)(C)S(C)(=O)=O)ccc4s3)cc(Cl)n2)CC1` [Example 105, N-(2-(4-(tert-butyl)piperidin-1-yl)-6-chloropyridin-4-yl)-5-(2-(methylsulfonyl)propan-2-yl)benzo[b]thiophene-2-carboxamide]: the figures for the IC50 in test [1], in test [2] and in test [3] were 0.049 µM, over 50 µM and 0.087 µM, respectively.

In the case of `CC(C)(c1cc(Cl)cc(NC(=O)c2cc3cc(C(C)(C)S(C)(=O)=O)ccc3s2)c1)c1cc(OCC(F)(F)F)cc(OC(F)(F)F)c1` [Example 12, N-(3-chloro-5-(2-(3-(2,2,2-trifluoroethoxy)-5-(trifluoromethoxy)phenyl)propan-2-yl)phenyl)-5-(2-(methylsulfonyl)propan-2-yl)benzo[b]thiophene-2-carboxamide], the figures for the IC50 in test [1], in test [2] and in test [3] were 0.002 µM, over 50 µM and 0.025 µM, respectively.

The term IC50 denotes the point on the concentration scale where inhibition reaches its midpoint.
